Results from patent US12023323B2, “Carbohydrate-binding small molecules with antiviral activity” (priority 2018, dated 2024).
Entries after “also recorded” stand apart in the source; their conditions may differ. Counter-ions that a name gives are not always drawn. Like-named read-outs stand apart in the source and are kept apart here.

What was measured:
[1] = 1H NMR titration with octyloxy pyranoside α-Man; format: binding; design: key to Ka (M^−1) with α-Man: No detectable binding; settings: for Ka (M^−1) with α-Man: NMR titrations in CD2Cl2 at 298 K; for affinity for α-Man relative to SCR001: fold / ratio SCR:SCR001
[2] = 1H NMR titration with octyloxy pyranoside β-Glc; format: binding; settings: for K1 (1:1 association constant) with β-Glc: CD2Cl2, 298 K; for affinity for β-Glc relative to SCR001: fold / ratio SCR:SCR001
[3] = 1H NMR titration with octyloxy pyranoside α-Glc; format: binding; settings: NMR titrations
[4] = 1H NMR titration with octyloxy pyranoside β-Gal; format: binding; settings: NMR titrations
[5] = Selectivity across the five octyloxy pyranosides from NMR titrations; format: binding; settings: for glycan preference in words / binding profile across the glycans in words: five octyloxy pyranosides, CD2Cl2, 298 K; for affinity for β-Glc over α-Man: times
ZIKV GFP RVPs [6] = tested on: ZIKV GFP RVPs
ZIKV GFP RVPs [7] = test: microbe, parasite or virus in culture; settings: Zika virus, Vero
[8] = Cellular toxicity, CellTiter-Glo, Vero cells; settings: African green monkey
Vero cells = test: Cellular toxicity, CellTiter-Glo, Vero cells; settings: for CC50: read-out: TC50, Table 1, 72 h, CellTiter-Glo
HIV-1 = settings: cell culture; cited from earlier work
ZIKV RVPs = test: microbe, parasite or virus in culture; format: cell-based, Zika virus; settings: for IC50: Zika virus, HeLa
[9] = 1H NMR titration with octyloxy pyranoside β-Man; format: binding; design: key to Ka (M^−1) with β-Man: No detectable binding; settings: for Ka (M^−1) with β-Man: NMR titrations in CD2Cl2 at 298 K
HeLa cells = test: Cellular toxicity, CellTiter-Glo, HeLa cells; settings: read-out: TC50, Table 2, 72 h
[10] = Table 3, Vero cells, ZIKV RVPs, average of at least two independent measurements
[11] = Table 3 study, Vero cells, ZIKV RVPs, unit μm [sic]
[12] = read-out: IC50 (strong antiviral activity), Vero cells, ZIKV RVPs
[13] = Table 1, Vero cells, compounds 30 min before ZIKV RVPs, GFP+ cells 72 h postinfection

Oc1ccccc1CNCc1cc(CNCc2ccccc2O)cc(-c2cc(CNCc3ccccc3O)cc(CNCc3ccccc3O)c2)c1 [SCR022, 2,2′,2″,2′″-((([1,1′-biphenyl]-3,3′,5,5′-tetrayltetrakis(methylene))tetrakis(azanediyl))tetrakis(methylene))tetraphenol]
Ka (M^−1) with α-Man ([1]; 1:1 binding): 280 M⁻¹
K2 (2:1 SCR·glycan association constant) with β-Glc ([2]; 2:1 SCR·glycan complexes): 690 M⁻¹
cumulative association constant β with β-Glc ([2]; 2:1 SCR·glycan complexes): 8.1×10^4 M^−2
K1 (1:1 association constant) with β-Glc [2]: 120 M⁻¹
affinity for β-Glc relative to SCR001 [2]: 62
binding to α-Glc in words [3]: no substantial binding
binding to β-Gal in words [4]: no substantial binding
glycan preference in words [5]: prefer β-Glc
affinity for β-Glc over α-Man [5]: 290
therapeutic index (TC50/IC50) (ZIKV GFP RVPs [6]; Table 3, Vero cells): 2
anti-ZIKV activity in words (ZIKV GFP RVPs [6]; Vero cells, ZIKV RVPs): potent anti-ZIKV activity
IC50 (ZIKV GFP RVPs [7]; [10]): 2.5 ± 0.6 µM
IC50 (ZIKV GFP RVPs [7]; [11]): < 5 µM
IC50 (ZIKV GFP RVPs [7]; [12]): < 5 µM
CC50 at 72 h [8]: 4.6 ± 1.1 µM
cellular toxicity in words (Vero cells): toxic to Vero cells

COc1cc(O)c2c(c1)C(=O)c1c(cc3c(c1O)-c1c(cc(C)c(C(=O)N[C@H](C)C(=O)O)c1O)[C@H](O[C@@H]1O[C@H](C)[C@H](O)[C@H](O[C@@H]4OC[C@@H](O)[C@H](O)[C@H]4O)[C@H]1O)[C@H]3O)C2=O [benanomicin A]
50% effective concentration against HIV-1 (HIV-1): micromolar concentration range

c1csc(CNCc2cc(CNCc3cccs3)cc(-c3cc(CNCc4cccs4)cc(CNCc4cccs4)c3)c2)c1 [SCR003, 1,1′,1″,1′″-([1,1′-biphenyl]-3,3′,5,5′-tetrayl)tetrakis(N-(thiophen-2-ylmethyl)methanamine)]
IC50 (ZIKV RVPs): 0.56 ± 0.08 µM
Ka (M^−1) with β-Man [9]: c
Ka (M^−1) with β-Man ([9]; 1:1 binding): < 30 M⁻¹
Ka (M^−1) with α-Man [1]: c
binding profile across the glycans in words [5]: only had measurable binding with β-Glc, and α-Man; also recorded: binds only β-Glc and α-Man
glycan preference in words [5]: preference for α-Man; also recorded: selective for α-Man
anti-ZIKV activity in words (ZIKV GFP RVPs [6]; Vero cells, ZIKV RVPs): less potent
IC50 (ZIKV GFP RVPs [7]; [13]): 1.31 µM
CC50 (Vero cells): 4.12 µM
CC50 (HeLa cells): 2.47 µM

c1ccc2[nH]c(CNCc3cc(CNCc4cc5ccccc5[nH]4)cc(-c4cc(CNCc5cc6ccccc6[nH]5)cc(CNCc5cc6ccccc6[nH]5)c4)c3)cc2c1 [SCR018, 1,1′,1″,1′″-([1,1′-biphenyl]-3,3′,5,5′-tetrayl)tetrakis(N-((1H-indol-2-yl)methyl)methanamine)]
fold selectivity for α-Man, SCR019 compared to SCR018 ([1]; 2-indole vs 3-indole): 36
Ka (M^−1) with α-Man ([1]; 1:1 binding): 11000 M⁻¹
affinity for α-Man relative to SCR001 [1]: 10
binding to β-Glc in words ([2]; NMR peak shifting upon mixing): no substantial binding
glycan preference in words [5]: uniquely bind α-Man; also recorded: specific for α-Man
therapeutic index (TC50/IC50) (ZIKV GFP RVPs [6]; Table 3, Vero cells): 2
anti-ZIKV activity in words (ZIKV GFP RVPs [6]; Vero cells, ZIKV RVPs): weaker inhibition
CC50 at 72 h [8]: 29.8 ± 5 µM

c1cncc(CNCc2cc(CNCc3cccnc3)cc(-c3cc(CNCc4cccnc4)cc(CNCc4cccnc4)c3)c2)c1 [SCR021, 1,1′,1″,1′″-([1,1′-biphenyl]-3,3′,5,5′-tetrayl)tetrakis(N-(pyridin-3-ylmethyl)methanamine)]
Ka (M^−1) with α-Man ([1]; 1:1 binding): 490 M⁻¹
K2 (1:2 SCR·glycan association constant) with β-Glc ([2]; 1:2 SCR·glycan complexes): 12000 M⁻¹
cumulative association constant β with β-Glc ([2]; 1:2 SCR·glycan complexes): 3.3×10^4 M^−2
K1 (1:1 association constant) with β-Glc [2]: 2.7 M⁻¹
affinity for β-Glc relative to SCR001 [2]: 25
binding to α-Glc in words [3]: no substantial binding
binding to β-Gal in words [4]: no substantial binding
glycan preference in words [5]: prefer β-Glc
affinity for β-Glc over α-Man [5]: 67
IC50 (ZIKV GFP RVPs [7]; [10]): > 100 µM
IC50 (ZIKV GFP RVPs [7]; [11]): > 100 µM

c1cc(CNCc2cc(CNCc3cc[nH]c3)cc(-c3cc(CNCc4cc[nH]c4)cc(CNCc4cc[nH]c4)c3)c2)c[nH]1 [SCR017, 1,1′,1″,1′″-([1,1′-biphenyl]-3,3′,5,5′-tetrayl)tetrakis(N-((1H-pyrrol-3-yl)methyl)methanamine)]
K2 (1:2 SCR·glycan association constant) with β-Glc ([2]; 1:2 SCR·glycan complexes): 6800 M⁻¹
cumulative association constant β with β-Glc ([2]; 1:2 SCR·glycan complexes): 8.4×10^1 M^−2
cumulative association constant β with β-Glc ([2]; 1:2 SCR·glycan, unit M^2): 8.4×10^1 M^2
K1 (1:1 association constant) with β-Glc [2]: 1.2 M⁻¹
affinity for β-Glc relative to SCR001 [2]: 7
glycan preference in words [5]: prefers β-Glc; also recorded: specific for β-Glc
IC50 relative to regioisomer (ZIKV GFP RVPs [6]; SCR023 vs SCR022, SCR017 vs SCR001): four times higher
therapeutic index (TC50/IC50) (ZIKV GFP RVPs [6]; Table 3, Vero cells): 66
anti-ZIKV activity in words (ZIKV GFP RVPs [6]; Vero cells, ZIKV RVPs): potent anti-ZIKV activity
IC50 (ZIKV GFP RVPs [7]; [10]): 4.8 ± 0.4 µM
IC50 (ZIKV GFP RVPs [7]; [11]): < 5 µM
IC50 (ZIKV GFP RVPs [7]; [12]): < 5 µM
CC50 at 72 h [8]: 316 ± 18 µM

c1ccc2c(CNCc3cc(CNCc4c[nH]c5ccccc45)cc(-c4cc(CNCc5c[nH]c6ccccc56)cc(CNCc5c[nH]c6ccccc56)c4)c3)c[nH]c2c1 [SCR019, 1,1′,1″,1′″-([1,1′-biphenyl]-3,3′,5,5′-tetrayl)tetrakis(N-((1H-indol-3-yl)methyl)methanamine)]
cumulative association constant β=K1×K2 with β-Man ([9]; 1:2 SCR·glycan binding model): 7.4×10^4 M^−2
cumulative association constant β with β-Man ([9]; 1:2 SCR·glycan, unit M^2): 7.4×10^4 M^2
K1 (1:1 association constant) with β-Man ([9]; CD2Cl2, 298 K): 2.3 M⁻¹
K2 (1:2 SCR·glycan association constant) with β-Man ([9]; CD2Cl2, 298 K, 1:2 SCR·glycan binding model): 32000 M⁻¹
affinity for β-Man relative to SCR001 ([9]; SCR019:SCR001): 2
Ka (M^−1) with α-Man ([1]; 1:1 binding): 290 M⁻¹
binding to α-Glc in words [3]: no substantial binding
glycan preference in words [5]: prefers β-Man; also recorded: selective for Mannosides with a preference for the β-anomer
affinity for β-Man over α-Man ([5]; fold): 250
therapeutic index (TC50/IC50) (ZIKV GFP RVPs [6]; Table 3, Vero cells): 153
IC50 (ZIKV GFP RVPs [7]; [10]): 0.26 µM
IC50 (ZIKV GFP RVPs [7]; [12]): < 5 µM
CC50 at 72 h [8]: 39.8 ± 1.7 µM
cellular toxicity in words (Vero cells): minimal cellular toxicity; also recorded: low off-site toxicity

c1coc(CNCc2cc(CNCc3ccco3)cc(-c3cc(CNCc4ccco4)cc(CNCc4ccco4)c3)c2)c1 [SCR002, 1,1′,1″,1′″-([1,1′-biphenyl]-3,3′,5,5′-tetrayl)tetrakis(N-(furan-2-ylmethyl)methanamine)]
anti-ZIKV activity in words (ZIKV RVPs; HeLa cells, ZIKV RVPs): more potent than SCR001
IC50 (ZIKV RVPs): 0.35 ± 0.09 µM
Ka (M^−1) with β-Man ([9]; 1:1 binding): 54 M⁻¹
Ka (M^−1) with α-Man ([1]; 1:1 binding): 1400 M⁻¹
binding profile across the glycans in words [5]: measurable binding with only β-Glc, β-Man and α-Man; also recorded: binds only β-Glc, β-Man, and α-Man
glycan preference in words [5]: preference for α-Man; also recorded: selective for α-Man
anti-ZIKV activity in words (ZIKV GFP RVPs [6]; Vero cells, ZIKV RVPs): less potent
IC50 (ZIKV GFP RVPs [7]; [13]): 1.13 ± 0.23 µM
CC50 (Vero cells): 5.43 µM
CC50 (HeLa cells): 2.51 µM

O=C(NCc1cc(CNC(=O)c2cccs2)cc(-c2cc(CNC(=O)c3cccs3)cc(CNC(=O)c3cccs3)c2)c1)c1cccs1 [SCR008, N,N,N′,N″-([1,1′-biphenyl]-3,3′,5,5′-tetrayltetrakis(methylene))tetrakis(thiophene-2-carboxamide)]
IC50 (ZIKV GFP RVPs [6]): > 100 µM
anti-ZIKV activity in words (ZIKV GFP RVPs [6]): not effective

c1c[nH]c(CNCc2cc(CNCc3ccc[nH]3)cc(-c3cc(CNCc4ccc[nH]4)cc(Cn4cc(COCCOCCOCCOCc5cn(Cc6cc(CNCc7ccc[nH]7)cc(-c7cc(CNCc8ccc[nH]8)cc(CNCc8ccc[nH]8)c7)c6)nn5)nn4)c3)c2)c1 [SCR012]
Ka (M^−1) with β-Man ([9]; 1:1 binding): 1700 M⁻¹
Ka (M^−1) with α-Man ([1]; 1:1 binding): 2600 M⁻¹
binding profile across the glycans in words [5]: promiscuous; also recorded: bind all five glycans
CC50 (Vero cells): 36.2 µM
CC50 (HeLa cells): 2.48 µM

NCc1cc(CN)cc(-c2cc(CN)cc(CN)c2)c1 [Compound 2, [1,1′-biphenyl]-3,3′,5,5′-tetrayltetramethanamine tetrahydrochloride]
IC50 (ZIKV GFP RVPs [7]; [13]): > 100 µM

CN[C@@H]1[C@H](O[C@@H]2OC[C@@H](O)[C@H](O)[C@H]2O)[C@@H](O)[C@H](O[C@H]2c3cc(C)c(C(=O)N[C@H](C)C(=O)O)c(O)c3-c3c(cc4c(c3O)C(=O)c3cc(OC)cc(O)c3C4=O)[C@@H]2O)O[C@@H]1C [pradimicin A]
50% effective concentration against HIV-1 (HIV-1): micromolar concentration range

c1ccc(CNCc2cc(CNCc3ccccn3)cc(-c3cc(CNCc4ccccn4)cc(CNCc4ccccn4)c3)c2)nc1 [SCR020, 1,1′,1″,1′″-([1,1′-biphenyl]-3,3′,5,5′-tetrayl)tetrakis(N-(pyridin-2-ylmethyl)methanamine)]
K2 (1:2 SCR·glycan association constant) with α-Man ([1]; 1:2 SCR·glycan binding model): 11 M⁻¹
cumulative association constant β with α-Man ([1]; 1:2 SCR·glycan binding model): 2.8×10^5 M^−2
cumulative association constant β with α-Man ([1]; 1:2 SCR·glycan, unit M^2): 2.8×10^5 M^2
K1 (1:1 association constant) with α-Man ([1]; CD2Cl2, 298 K): 260 M⁻¹
affinity for α-Man relative to SCR001 [1]: 200
change in affinity for α-Man, SCR020 and SCR021 ([1]; times): 570
glycan preference in words [5]: uniquely bind α-Man; also recorded: specific for α-Man
therapeutic index (TC50/IC50) (ZIKV GFP RVPs [6]; Table 3, Vero cells): 9
IC50 (ZIKV GFP RVPs [6]; [10]): 19.9 ± 14.4 µM
anti-ZIKV activity in words (ZIKV GFP RVPs [6]; Vero cells, ZIKV RVPs): weaker inhibition
IC50 (ZIKV GFP RVPs [7]; [10]): < 20 µM
CC50 at 72 h [8]: 178 ± 99 µM
